Publication PMC3574224, “Na^+ Regulation in the Malaria Parasite Plasmodiumfalciparum Involves the Cation ATPase PfATP4 and Is a Target of the Spiroindolone Antimalarials” (Cell Host & Microbe, 2013)

Experiments:
[1] = tested on: P. falciparum Dd2^attB parent; assay: Disruption of [Na^+]i regulation, SBFI-loaded trophozoites, Dd2^attB parent; type: cell-based; conditions: Plasmodium falciparum, from fitted curves, read-out: IC50 for disruption of Na^+ regulation by NITD246
Protocol: (§1) The [Na^+]i of saponin-isolated parasites was measured at 37°C using the Na^+-sensitive dye SBFI (Molecular Probes, Invitrogen) in conjunction with a PerkinElmer LS 50B Fluorescence Spectrometer fitted with a Dual Excitation Fast Filter. Saponin-isolated parasites were loaded with SBFI by suspension (at 1.40–1.80 × 10^8 cells/mL) for 20 min at 37°C in bicarbonate-free RPMI1640 supplemented with 20 mM D-glucose, 0.2 mM hypoxanthine, 25 mM HEPES, and 25 mg/L gentamycin sulfate (pH 7.10), to which SBFI-acetoxymethyl ester (5.5 μM) and Pluronic F-127 (0.01% w/v) were added. The dye-loaded cells were washed twice (12,000 × g, 0.5 min) in bicarbonate-free RPMI then incubated for a further 20 min at 37°C to allow for complete de-esterification of the dye before being resuspended at a final cell concentration of 1.5–2.5 × 10^7 cells/mL in standard saline. The dye-loaded cells were excited at 340 nm and 380 nm with fluorescence recorded at 490 nm. Calibration of the relationship between the 340/380 nm fluorescence ratio and [Na^+]i (see Figures S1A–S1C) was carried out as described previously ([Diarra et al., 2001]; [Harootunian et al., 1989]). Several inhibitors used in this study caused inner filter effects ([Gu and Kenny, 2009]; [Srinivas and Mutharasan, 1987]); in these cases calibration curves were generated with the inhibitors present. […]

[2] = tested on: P. falciparum trophozoites; assay: Cytosolic pH (pHi) in BCECF-loaded saponin-isolated parasites; type: cell-based, Plasmodium falciparum; conditions: 50 nM
Protocol: pHi of saponin-isolated parasites was measured using the pH-sensitive indicator BCECF (Molecular Probes, Invitrogen) as described previously ([Saliba and Kirk, 1999]). […] Critical experiments performed using SBFI-loaded parasites were repeated with parasites loaded with BCECF.

[3] = biological target: T1, membrane-associated ATPase activity in P. falciparum infected human erythrocytes (3D7) (Plasmodium falciparum, UniProt A0A143ZZK9); assay: Membrane-associated ATPase activity (Pi production), infected erythrocyte membranes; type: biochemical; conditions: 50 nM
T1 construct: saponin-isolated parasites were lysed by suspension in ice-cold water; endogenous in cells; host or cells: membrane preparation of saponin-isolated mature trophozoite-stage P. falciparum 3D7 parasites
T1 sequence (A0A143ZZK9 whole entry): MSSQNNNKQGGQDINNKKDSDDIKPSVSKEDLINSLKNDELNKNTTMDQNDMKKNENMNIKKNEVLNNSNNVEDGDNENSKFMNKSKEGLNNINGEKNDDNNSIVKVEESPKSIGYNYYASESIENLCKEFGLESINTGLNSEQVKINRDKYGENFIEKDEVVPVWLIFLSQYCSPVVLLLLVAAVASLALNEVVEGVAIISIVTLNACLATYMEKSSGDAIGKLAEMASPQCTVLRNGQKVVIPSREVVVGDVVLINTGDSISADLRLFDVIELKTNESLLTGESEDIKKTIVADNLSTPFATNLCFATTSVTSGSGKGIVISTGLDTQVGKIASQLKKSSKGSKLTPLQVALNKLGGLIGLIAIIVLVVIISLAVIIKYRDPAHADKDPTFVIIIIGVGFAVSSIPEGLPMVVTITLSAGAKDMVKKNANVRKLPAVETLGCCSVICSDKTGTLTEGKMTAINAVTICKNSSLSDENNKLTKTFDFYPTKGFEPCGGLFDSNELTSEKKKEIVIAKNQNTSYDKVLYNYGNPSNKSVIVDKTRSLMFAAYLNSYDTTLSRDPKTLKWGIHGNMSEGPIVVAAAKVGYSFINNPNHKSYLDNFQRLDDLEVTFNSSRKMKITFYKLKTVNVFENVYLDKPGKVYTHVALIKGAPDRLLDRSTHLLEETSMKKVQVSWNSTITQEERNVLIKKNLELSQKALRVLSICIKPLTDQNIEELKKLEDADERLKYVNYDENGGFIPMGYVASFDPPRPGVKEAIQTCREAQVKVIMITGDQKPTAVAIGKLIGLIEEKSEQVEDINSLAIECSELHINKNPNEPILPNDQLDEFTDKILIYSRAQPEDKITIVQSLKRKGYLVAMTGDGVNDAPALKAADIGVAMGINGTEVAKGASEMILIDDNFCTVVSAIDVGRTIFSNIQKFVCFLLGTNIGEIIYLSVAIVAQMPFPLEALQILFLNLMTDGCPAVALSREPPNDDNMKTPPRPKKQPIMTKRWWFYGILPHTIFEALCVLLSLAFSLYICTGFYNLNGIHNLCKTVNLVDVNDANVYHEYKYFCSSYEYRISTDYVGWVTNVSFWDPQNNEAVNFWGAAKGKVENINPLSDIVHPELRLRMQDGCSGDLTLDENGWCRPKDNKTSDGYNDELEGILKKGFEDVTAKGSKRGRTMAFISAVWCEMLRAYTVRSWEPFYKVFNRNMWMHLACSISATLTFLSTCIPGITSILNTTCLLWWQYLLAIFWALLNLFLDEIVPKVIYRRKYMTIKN
Protocol: For the preparation of uninfected erythrocyte membranes, packed uninfected erythrocytes were lysed by incubation for 5 min in ice-cold PBS containing 0.1% (w/v) saponin together with 1/500 Protease Inhibitor Cocktail Set III (Calbiochem). The erythrocyte ghosts were pelleted by centrifugation (12,000 × g, 10 min) and washed three times in ice-cold water (12,000 × g, 10 min) immediately prior to their use in the ATPase assay. To prepare membranes from parasitised erythrocytes, saponin-isolated parasites were lysed by suspension in ice-cold water (containing 1/500 Protease Inhibitor Cocktail Set III) then washed three times in ice-cold water (12,000 × g, 10 min) before their immediate use in the ATPase assay. The ATPase activity of membrane preparations from uninfected erythrocytes and saponin-isolated parasites was estimated from the rate of hydrolysis of ATP and measured using the PiColorLock Gold Phosphate (Pi) Detection System (Innova Biosciences). Briefly, membrane preparations from 1–3 × 10^8 cells were suspended in reaction buffer (100 mM of either NaCl or choline chloride, 50 mM Tris-HCl, 20 mM KCl, and 2 mM MgCl2) at 37°C. The ATPase reaction was initiated by the addition of 0.25 mM Na2ATP. Note that it was necessary to use the Na^+ salt of ATP, rather than the K^+ and Mg^2+ salts, as the latter both contain residual Pi that saturated the Pi detection system. […]

[4] = tested on: P. falciparum 3D7 trophozoites; assay: microbe, parasite or virus in culture; type: cell-based, Plasmodium falciparum
Protocol: P. falciparum strains 3D7, Dd2, NITD609-R^Dd2 clone #2, Dd2^attB, and Dd2^attB CAM I398F/P990R were cultured under shaking conditions as described elsewhere ([Allen and Kirk, 2010]). Cultures were synchronized 24 hr before experimentation using 5% w/v sorbitol ([Lambros and Vanderberg, 1979]). All experiments were conducted on mature trophozoite-stage parasites (36–40 hr postinvasion) functionally isolated from their host erythrocytes by permeabilization of the erythrocyte and parasitophorous vacuole membranes by brief exposure to saponin (0.05% w/v) as described previously ([Spillman et al., 2008]).
The [Na^+]i of saponin-isolated parasites was measured at 37°C using the Na^+-sensitive dye SBFI (Molecular Probes, Invitrogen) in conjunction with a PerkinElmer LS 50B Fluorescence Spectrometer fitted with a Dual Excitation Fast Filter. Saponin-isolated parasites were loaded with SBFI by suspension (at 1.40–1.80 × 10^8 cells/mL) for 20 min at 37°C in bicarbonate-free RPMI1640 supplemented with 20 mM D-glucose, 0.2 mM hypoxanthine, 25 mM HEPES, and 25 mg/L gentamycin sulfate (pH 7.10), to which SBFI-acetoxymethyl ester (5.5 μM) and Pluronic F-127 (0.01% w/v) were added. The dye-loaded cells were washed twice (12,000 × g, 0.5 min) in bicarbonate-free RPMI then incubated for a further 20 min at 37°C to allow for complete de-esterification of the dye before being resuspended at a final cell concentration of 1.5–2.5 × 10^7 cells/mL in standard saline. The dye-loaded cells were excited at 340 nm and 380 nm with fluorescence recorded at 490 nm. Calibration of the relationship between the 340/380 nm fluorescence ratio and [Na^+]i (see Figures S1A–S1C) was carried out as described previously ([Diarra et al., 2001]; [Harootunian et al., 1989]).
The initial Na^+ influx rate (at t = 0) is a × Δ[Na^+]i^max.
Dose-response curves were obtained using the expression y = y^min + y^max/(1 + [C/IC50]^b), where y is the parameter being measured (parasite proliferation, Na^+ influx, or ATPase activity), y^min is the minimum value of y, y^max is the maximum value of y, C is the concentration of the moiety that was varied in the experiment, IC50 is the concentration at which y was reduced to 50% of y^max, and b is a fitted constant.

[5] = tested on: P. falciparum NITD609-R^Dd2 clone #2 (mutant PfATP4); assay: Disruption of [Na^+]i regulation, SBFI-loaded trophozoites, NITD609-R^Dd2 clone #2; type: cell-based; conditions: Plasmodium falciparum, from fitted curves, read-out: IC50 for disruption of Na^+ regulation by NITD246
Protocol: as §1

Q: What does the source list for `C[C@H]1Cc2c([nH]c3cc(F)c(F)cc23)[C@@]2(N1)C(=O)Nc1ccc(Cl)cc12` [NITD246]?
A: IC50 [1]: 1.7 ± 0.5 nM; Cytosolic pH (pHi) after addition ([2]; Na^+-containing medium pH 7.1, increase from 7.33 ± 0.03, n = 6, p = 0.009): 7.46 ± 0.02; Effect on pHi ([2]; solution containing choline^+ in place of Na^+): no significant effect; remaining activity at 0.05 µM ([3]; 100 mM Na^+, n = 5, p = 0.020, read-out: ATPase activity, % of the control value): 60%; Effect on ATPase activity ([3]; low (0.5 mM) [Na^+] medium, p = 0.63): no significant change; Effect on resting [Na^+]i ([4]; 50 nM, 3D7, standard saline): immediate rapid increase in [Na^+]i; IC50 ([4]; Plasmodium falciparum, concentration causing [Na^+]i to increase from resting value at half the maximal rate, from fitted curves, 3D7, standard saline, read-out: IC50 for disruption of Na^+ regulation): 2.1 ± 0.8 nM; Rate of increase of [Na^+]i at maximally effective concentrations ([4]; maximally effective concentration): 0.092 ± 0.007 mM/s; IC50 [5]: 10.4 ± 8.4 nM
